“And” between values parts separate entries of the source, which are not always exact repeats. Equal entries are not always repeated. Toxic doses and inconclusive results are not listed.
Test system: P388 leukemia ip, CD2F1 mice, survival T/C
Experiment: NCI In Vivo Anticancer Drug Screen. Data for tumor model P388 Leukemia (intraperitoneal) in CD2F1 (CDF1) mice
Details: endpoint: median survival time, higher = longer survival
Method in brief: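 Mice carrying the transplanted tumor received test compound or vehicle. Survival was recorded in each group, and the value is the treated-group measurement divided by that of the vehicle-treated control group.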

[1] = dose: 50.0 mg/kg/injection, schedule: Q01DX005 (ip), vehicle: saline with Tween-80
[2] = dose: 100.0 mg/kg/injection, schedule: Q01DX005 (ip), vehicle: saline with Tween-80
[3] = dose: 200.0 mg/kg/injection, schedule: Q01DX005 (ip), vehicle: saline with Tween-80
[4] = dose: 60.0 mg/kg/injection, schedule: Q01DX005 (ip), vehicle: saline with Tween-80
[5] = dose: 120.0 mg/kg/injection, schedule: Q01DX005 (ip), vehicle: saline with Tween-80
[6] = dose: 240.0 mg/kg/injection, schedule: Q01DX005 (ip), vehicle: saline with Tween-80
[7] = dose: 6.25 mg/kg/injection, schedule: Q01DX009 (ip), vehicle: saline with Tween-80
[8] = dose: 12.5 mg/kg/injection, schedule: Q01DX009 (ip), vehicle: saline with Tween-80
[9] = dose: 50.0 mg/kg/injection, schedule: Q01DX009 (ip), vehicle: saline with Tween-80
[10] = dose: 100.0 mg/kg/injection, schedule: Q01DX009 (ip), vehicle: saline with Tween-80
[11] = dose: 200.0 mg/kg/injection, schedule: Q01DX009 (ip), vehicle: saline with Tween-80

## N=C(N)c1ccc(/C=C/c2ccc(C(=N)N)cc2)cc1
dose: 8.0 mg/kg/injection, schedule: Q01DX009 (ip), vehicle: saline with Tween-80
  T/C: 119 % of control
dose: 16.0 mg/kg/injection, schedule: Q01DX009 (ip), vehicle: saline with Tween-80
  T/C: 122 % of control and 124 % of control
dose: 32.0 mg/kg/injection, schedule: Q01DX009 (ip), vehicle: saline with Tween-80
  T/C: 124 % of control
dose: 64.0 mg/kg/injection, schedule: Q01DX009 (ip), vehicle: Klucel (hydroxypropylcellulose) (HPC)
  T/C: 177 % of control

## O=C1NC(=O)/C(=C\c2ccco2)S1
dose: 6.25 mg/kg/injection, schedule: Q01DX009 (ip), vehicle: Klucel (hydroxypropylcellulose) (HPC)
  T/C: 98 % of control
dose: 12.5 mg/kg/injection, schedule: Q01DX009 (ip), vehicle: Klucel (hydroxypropylcellulose) (HPC)
  T/C: 89 % of control
dose: 25.0 mg/kg/injection, schedule: Q01DX009 (ip), vehicle: Klucel (hydroxypropylcellulose) (HPC)
  T/C: 94 % of control

## O=C1c2cc([N+](=O)[O-])cc3cc([N+](=O)[O-])cc(c23)C(=O)N1CCNCCN1C(=O)c2cc([N+](=O)[O-])cc3cc([N+](=O)[O-])cc(c23)C1=O
[1]
  T/C: 100 % of control and 123 % of control
[2]
  T/C: 107 % of control
[3]
  T/C: 105 % of control and 88 % of control

## O=C(O)c1c(-c2ccccc2)sc2ccccc2c1=O
dose: 100.0 mg/kg/injection, schedule: Q01DX001 (ip), vehicle: saline with Tween-80
  T/C: 99 % of control
dose: 200.0 mg/kg/injection, schedule: Q01DX001 (ip), vehicle: saline with Tween-80
  T/C: 99 % of control
dose: 400.0 mg/kg/injection, schedule: Q01DX001 (ip), vehicle: saline with Tween-80
  T/C: 99 % of control

## COC(=O)C(=O)C1CCc2c(C(=O)OC)nc3nnc(N)n3c21 (configuration not stated)
[4]
  T/C: 94 % of control
[5]
  T/C: 99 % of control
[6]
  T/C: 87 % of control

## C1CC2CCC(N3CCCC3)C(C1)C21OCCO1 (configuration not stated)
[4]
  T/C: 93 % of control
[5]
  T/C: 92 % of control

## C[N+]1(C)CCc2c([nH]c3ccccc23)C1
dose: 100.0 mg/kg/injection, schedule: Q01DX001 (ip), vehicle: suspension in saline
  T/C: 95 % of control
dose: 200.0 mg/kg/injection, schedule: Q01DX001 (ip), vehicle: suspension in saline
  T/C: 107 % of control

## CNc1ccc(N=Nc2ccc3ncccc3c2)cc1
dose: 3.13 mg/kg/injection, schedule: Q01DX009 (ip), vehicle: saline with Tween-80
  T/C: 104 % of control
[7]
  T/C: 95 % of control
[8]
  T/C: 90 % of control
dose: 25.0 mg/kg/injection, schedule: Q04DX003 (ip), vehicle: saline with Tween-80
  T/C: 100 % of control
dose: 50.0 mg/kg/injection, schedule: Q04DX003 (ip), vehicle: saline with Tween-80
  T/C: 90 % of control
dose: 100.0 mg/kg/injection, schedule: Q04DX003 (ip), vehicle: saline with Tween-80
  T/C: 86 % of control

## O=c1ccc(=O)n(-c2ccccc2)[nH]1
[7]
  T/C: 114 % of control
[8]
  T/C: 100 % of control
dose: 25.0 mg/kg/injection, schedule: Q01DX009 (ip), vehicle: saline with Tween-80
  T/C: 118 % of control
[9]
  T/C: 119 % of control

## CCCCNP(=O)(N1CC1CC)N1CC1CC (configuration not stated)
dose: 50.0 mg/kg/injection, schedule: Q01DX009 (ip), vehicle: saline
  T/C: 122 % of control
dose: 100.0 mg/kg/injection, schedule: Q01DX009 (ip), vehicle: saline
  T/C: 150 % of control
dose: 200.0 mg/kg/injection, schedule: Q01DX009 (ip), vehicle: saline
  T/C: 104 % of control
dose: 300.0 mg/kg/injection, schedule: Q04DX003 (ip), vehicle: saline
  T/C: 195 % of control

## CN(NC(=O)CCl)c1ccc([N+](=O)[O-])cc1[N+](=O)[O-]
[10]
  T/C: 118 % of control
[11]
  T/C: 108 % of control
dose: 400.0 mg/kg/injection, schedule: Q01DX009 (ip), vehicle: saline with Tween-80
  T/C: 94 % of control

## O=C(NC(=O)c1cccc2ccccc12)NC(=S)c1ccccc1
dose: 100.0 mg/kg/injection, schedule: Q01DX001 (ip), vehicle: saline
  T/C: 92 % of control
dose: 200.0 mg/kg/injection, schedule: Q01DX001 (ip), vehicle: saline
  T/C: 88 % of control
dose: 400.0 mg/kg/injection, schedule: Q01DX001 (ip), vehicle: saline
  T/C: 86 % of control

## C[C@H](N)[C@H](O)c1cccc(O)c1
dose: 1.5 mg/kg/injection, schedule: Q01DX005 (ip), vehicle: saline
  T/C: 103 % of control
dose: 3.0 mg/kg/injection, schedule: Q01DX005 (ip), vehicle: saline
  T/C: 99 % of control
dose: 6.0 mg/kg/injection, schedule: Q01DX005 (ip), vehicle: saline
  T/C: 110 % of control
dose: 6.25 mg/kg/injection, schedule: Q01DX005 (ip), vehicle: saline
  T/C: 115 % of control
dose: 25.0 mg/kg/injection, schedule: Q01DX005 (ip), vehicle: saline
  T/C: 100 % of control

## O=C1SC/C(=N\N=c2/scc(-c3ccccc3)n2-c2ccc(Br)cc2)N1Cc1ccccc1
dose: 100.0 mg/kg/injection, schedule: Q04DX002 (ip), vehicle: Klucel (hydroxypropylcellulose) (HPC)
  T/C: 86 % of control
dose: 200.0 mg/kg/injection, schedule: Q04DX002 (ip), vehicle: Klucel (hydroxypropylcellulose) (HPC)
  T/C: 91 % of control

## [Mn].[NH-]C(CSSCC(N)C(=O)O)C(=O)O (configuration not stated)
dose: 100.0 mg/kg/injection, schedule: Q04DX003 (ip), vehicle: saline
  T/C: 97 % of control
dose: 200.0 mg/kg/injection, schedule: Q04DX003 (ip), vehicle: saline
  T/C: 114 % of control
dose: 400.0 mg/kg/injection, schedule: Q04DX003 (ip), vehicle: saline
  T/C: 106 % of control

## CCc1cccc(CC)c1NC(=O)c1ccc(C)cc1
[4]
  T/C: 91 % of control
[5]
  T/C: 86 % of control

## CCCC1N[C@H](C(=O)O)CS1 (some centres not stated)
dose: 50.0 mg/kg/injection, schedule: Q01DX001 (ip), vehicle: Klucel (hydroxypropylcellulose) (HPC)
  T/C: 100 % of control
dose: 100.0 mg/kg/injection, schedule: Q01DX001 (ip), vehicle: Klucel (hydroxypropylcellulose) (HPC)
  T/C: 97 % of control
dose: 200.0 mg/kg/injection, schedule: Q01DX001 (ip), vehicle: Klucel (hydroxypropylcellulose) (HPC)
  T/C: 102 % of control
dose: 400.0 mg/kg/injection, schedule: Q01DX001 (ip), vehicle: Klucel (hydroxypropylcellulose) (HPC)
  T/C: 100 % of control

## C/C(=N\NC(=S)/N=c1\sccn1Cc1ccccc1)c1ccccn1
dose: 6.25 mg/kg/injection, schedule: Q01DX005 (ip), vehicle: saline with Tween-80
  T/C: 117 % of control and 123 % of control

## C/C(=N\NC(=S)Nc1ccc(C(=O)O)cc1C)c1ccccn1
[1]
  T/C: 114 % of control
[2]
  T/C: 121 % of control

## C=C(c1ccc(OC)cc1)c1ccc(OC)cc1
[9]
  T/C: 103 % of control
[10]
  T/C: 105 % of control
[11]
  T/C: 102 % of control

## N#CC(C(=O)C(=O)Nc1ccc(Cl)cc1Cl)c1c(Cl)cccc1Cl (configuration not stated)
[4]
  T/C: 100 % of control
[5]
  T/C: 101 % of control

## O=C(N/N=C/c1ccc(O)cc1O)c1cccnc1
dose: 12.5 mg/kg/injection, schedule: Q01DX009 (ip), vehicle: olive oil, sesame oil, peanut oil
  T/C: 106 % of control
dose: 25.0 mg/kg/injection, schedule: Q01DX009 (ip), vehicle: olive oil, sesame oil, peanut oil
  T/C: 105 % of control
dose: 50.0 mg/kg/injection, schedule: Q01DX009 (ip), vehicle: olive oil, sesame oil, peanut oil
  T/C: 121 % of control
dose: 50.0 mg/kg/injection, schedule: Q01DX009 (oral), vehicle: saline with Tween-80
  T/C: 108 % of control
dose: 100.0 mg/kg/injection, schedule: Q01DX009 (ip), vehicle: olive oil, sesame oil, peanut oil
  T/C: 102 % of control
dose: 100.0 mg/kg/injection, schedule: Q01DX009 (oral), vehicle: saline with Tween-80
  T/C: 108 % of control
dose: 200.0 mg/kg/injection, schedule: Q01DX009 (oral), vehicle: saline with Tween-80
  T/C: 101 % of control
dose: 400.0 mg/kg/injection, schedule: Q01DX009 (oral), vehicle: saline with Tween-80
  T/C: 105 % of control

## CC(CN(C)C)OC(=O)c1ccc(Cl)cc1Cl (configuration not stated)
dose: 50.0 mg/kg/injection, schedule: Q01DX005 (ip), vehicle: saline
  T/C: 100 % of control
dose: 100.0 mg/kg/injection, schedule: Q01DX005 (ip), vehicle: saline
  T/C: 98 % of control
dose: 200.0 mg/kg/injection, schedule: Q01DX005 (ip), vehicle: saline
  T/C: 100 % of control

## N#CC(C(=O)C(=O)Nc1cccc(C(F)(F)F)c1)c1ccccc1Cl (configuration not stated)
[4]
  T/C: 102 % of control
[5]
  T/C: 97 % of control
[6]
  T/C: 99 % of control

## COc1ccc(NC(=O)Nc2ccc(-c3ccc(NC(=O)Nc4ccc(OC)cc4)c(C)c3)cc2C)cc1
dose: 25.0 mg/kg/injection, schedule: Q01DX005 (ip), vehicle: saline with Tween-80
  T/C: 100 % of control
[1]
  T/C: 87 % of control and 94 % of control
[2]
  T/C: 91 % of control
[3]
  T/C: 90 % of control

— PubChem BioAssay AID330 (DTP/NCI, 2004)
